Reference: patent US20220125765A1, “PHARMACEUTICAL COMBINATIONS COMPRISING MEBENDAZOLE AND A STRONG OR MODERATE CYP1A2 INHIBITOR” (ZEPHAPHARM LTD, priority 2019, published 2022)
Read-outs that look alike come from different tables or passages of the source.

Assays:
CYP1A2 = CYP1A2 (Homo sapiens, UniProt P05177); details: cited from earlier work
[1] = system: human cryopreserved hepatocytes
Procedure: (§1) Mebendazole (1 μM) was incubated with cryopreserved human hepatocytes for 60 min in the absence and presence of cimetidine at 30, 100 and 300 μM) and thiabendazole at 10, 30 and 100 μM and samples taken at the required time points. The amount of test compound remaining at each time point was analysed by LC-MS/MS. Appropriate control compounds were also incubated along with ethoxycoumarin, which was incubated in the absence and presence of cimetidine and thiabendazole.
(§2) The final incubation volume was 500 μL. Two control compounds were included, alongside appropriate vehicle control. A positive control compound, ethoxycoumarin, for CYP1A2 was included. The positive control compound was incubated without inhibitor and in the presence of each inhibitor. The reactions were stopped by transferring 50 μL of incubate to 100 μL acetonitrile containing internal standard at the appropriate time points (0, 5, 10, 20, 40 and 60 min). The termination plates were centrifuged at 2500 rpm at 4° C. for 30 min to precipitate the protein.

[2] = system: human cryopreserved hepatocytes; details: for reduction of metabolism of mebendazole: initial experiments
Procedure: (§3) The amount of test compound remaining at each time point was analysed by LC-MS/MS. Appropriate control compounds were also incubated.
(§4) The final incubation volume was 500 μL. Appropriate control compounds were included, alongside appropriate vehicle control.
(§5) The reactions were stopped by transferring 50 μL of incubate to 100 μL acetonitrile containing internal standard at the appropriate time points (0, 5, 10, 20, 40 and 60 min). The termination plates were centrifuged at 2500 rpm at 4° C. for 30 min to precipitate the protein.

[3] = system: human cryopreserved hepatocytes; remark: listed apart in the source
Procedure: as §3, §4, §5

in vitro = details: human, cryopreserved hepatocytes, probe mebendazole 1 µM (intrinsic clearance)
Procedure: as §3, §4, §5

human BCRP transporter = human BCRP transporter (Homo sapiens, UniProt Q9UNQ0); details: Caco-2
Excerpt: Bidirectional apparent permeability of test compound was quantified by LC-MS/MS and used to determine an efflux ratio.

[4] = Stability in human liver microsomes without and with cimetidine or furafylline (Example 4); type: in vitro ADME; details: human liver microsomes, largest effect over concentrations tested
Procedure: A minus cofactor control incubation was included for each compound tested where 0.1 M phosphate buffer pH 7.4 was added instead of NADPH (minus NADPH). […] The samples were analysed for mebendazole or phenacetin using LC-MS/MS.
A minus cofactor control incubation was included for each compound tested where 0.1 M phosphate buffer pH 7.4 was added instead of cofactor (minus NADPH). […] The samples were analysed for mebendazole or phenacetin using LC-MS/MS.

[5] = system: human cryopreserved hepatocytes; assay: Stability in human cryopreserved hepatocytes without and with cimetidine or furafylline (Example 5); type: in vitro ADME; details: human hepatocytes, largest effect over concentrations tested
Procedure: The final incubation volume was 500 μL. Two control compounds were included with each species, alongside appropriate vehicle control.
The samples were analysed for mebendazole or ethoxycoumarin using LC-MS/MS.
The final incubation volume was 500 μL.
A positive control compound, ethoxycoumarin, for CYP1A2 was included. […] The samples were analysed for mebendazole or ethoxycoumarin using LC-MS/MS.

[6] = system: human cryopreserved hepatocytes; assay: Stability in human cryopreserved hepatocytes without and with cimetidine or thiabendazole (Example 6); details: human hepatocytes, largest effect over concentrations tested
Procedure: as §1, §2

Sequence of CYP1A2 (P05177 whole entry): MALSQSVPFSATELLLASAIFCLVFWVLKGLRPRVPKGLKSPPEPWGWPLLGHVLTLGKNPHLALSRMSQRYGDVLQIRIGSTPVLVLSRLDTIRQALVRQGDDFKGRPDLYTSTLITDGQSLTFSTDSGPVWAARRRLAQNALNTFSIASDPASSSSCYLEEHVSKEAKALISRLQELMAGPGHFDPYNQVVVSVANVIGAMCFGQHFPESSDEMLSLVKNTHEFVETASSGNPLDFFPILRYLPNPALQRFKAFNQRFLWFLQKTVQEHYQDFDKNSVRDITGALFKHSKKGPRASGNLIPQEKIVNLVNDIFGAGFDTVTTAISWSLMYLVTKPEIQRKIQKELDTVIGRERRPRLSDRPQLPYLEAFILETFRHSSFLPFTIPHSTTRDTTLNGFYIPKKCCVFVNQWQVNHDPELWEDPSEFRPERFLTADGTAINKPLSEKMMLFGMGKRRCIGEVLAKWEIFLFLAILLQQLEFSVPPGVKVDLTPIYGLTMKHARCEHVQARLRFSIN
Sequence of human BCRP transporter (Q9UNQ0 whole entry): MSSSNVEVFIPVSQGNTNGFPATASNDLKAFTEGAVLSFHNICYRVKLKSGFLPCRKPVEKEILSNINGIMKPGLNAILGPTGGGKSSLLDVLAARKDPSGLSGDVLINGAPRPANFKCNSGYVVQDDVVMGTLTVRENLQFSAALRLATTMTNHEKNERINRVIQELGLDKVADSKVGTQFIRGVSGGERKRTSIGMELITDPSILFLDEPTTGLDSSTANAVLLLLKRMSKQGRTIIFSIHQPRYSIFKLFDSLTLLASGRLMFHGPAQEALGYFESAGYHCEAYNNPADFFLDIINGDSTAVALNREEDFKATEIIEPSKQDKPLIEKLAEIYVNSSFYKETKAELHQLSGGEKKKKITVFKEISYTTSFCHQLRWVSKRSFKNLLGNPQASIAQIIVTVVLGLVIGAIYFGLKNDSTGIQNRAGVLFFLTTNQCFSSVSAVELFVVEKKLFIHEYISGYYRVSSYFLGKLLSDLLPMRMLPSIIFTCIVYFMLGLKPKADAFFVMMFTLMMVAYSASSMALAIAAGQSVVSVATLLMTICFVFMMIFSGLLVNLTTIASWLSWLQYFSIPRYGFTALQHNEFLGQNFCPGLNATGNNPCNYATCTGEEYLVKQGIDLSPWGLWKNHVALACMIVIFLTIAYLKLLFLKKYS

With `c1ccc2[nH]c(-c3cscn3)nc2c1` [Thiabendazole] as the molecule, how does the IC50 (CYP1A2; read-out: IC50 value for CYP1A2 inhibition) read?
Its IC50 is 830 nM.

What about the Ki (CYP1A2; read-out: inhibition constant (Ki) value for CYP1A2 inhibition) of the same molecule?
The Ki was 1540 nM.

What about the “decrease of mebendazole metabolism in presence of the inhibitor” value (shortened to “decrease … of the inhibitor”) [1] of the same molecule?
The value was 6.4 fold.

And the “inhibition of intrinsic clearance of mebendazole” value (“inhibition … of mebendazole” for short) [1]?
The value was 84%.

For `COCCCC/C(=N\OCCN)c1ccc(C(F)(F)F)cc1` [Fluvoxamine], which “reduction of metabolism of mebendazole” value ([2]; at 30 μM fluvoxamine) is on record?
Its value is 2.3 fold.

And the “reduction of metabolism of mebendazole” value ([3]; fluvoxamine 10 to 300 μM, maximum as seen at 10 μM)?
The value was “up to 20.2 fold”.

And the inhibition at 10 µM (in vitro)?
The inhibition at 10 µM was 95%.

Which “efflux ratio (ER) of positive control substrate” value (human BCRP transporter) does the source give for `C[C@]12CC[C@@H]3c4ccc(OS(=O)(=O)O)cc4CC[C@H]3[C@@H]1CCC2=O` [Estrone-3-sulfate] here?
Its value is 128.

Which results are given for `Cc1cccc(C)c1OCC(C)N` (centres unmarked) [Mexiletine]?
reduction of metabolism of mebendazole ([2]; at 10 μM mexiletine): 2.7 fold; reduction of metabolism of mebendazole ([3]; mexiletine 10 to 300 μM, maximum as seen at 30 μM): up to 7.8 fold; inhibition at 30 µM (in vitro): 87%

For `CN/C(=N/CCSCc1nc[nH]c1C)NC#N` [Cimetidine], which “inhibition … of mebendazole” value [4] is on record?
The value was 32%.

What about the “decrease … of the inhibitor” value [5] of the same molecule?
Its value is 1.3 fold.

And the “inhibition … of mebendazole” value [5]?
Its value is 25%.

What about the “effect on metabolism of mebendazole” value ([2]; in the presence of cimetidine (30-300 μM)) of the same molecule?
Its value is “not decreased”.

What about the “decrease … of the inhibitor” value [6] of the same molecule?
The value was 1.2 fold.

What about the “inhibition … of mebendazole” value [6] of the same molecule?
The value was 19%.
